{
  "source": "patent US11795199B2",
  "about": "“Peptide targeting Mycobacterium tuberculosis toxin-antitoxin system and use thereof” (Seoul National University R&DB Foundation, priority 2017, dated 2023)",
  "target": "VapBC26 protein complex (Mycobacterium tuberculosis, UniProt O53778)",
  "sequence (O53778 whole entry, one chain of several)": "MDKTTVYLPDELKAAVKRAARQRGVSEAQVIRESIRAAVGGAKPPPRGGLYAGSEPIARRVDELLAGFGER",
  "data": [
    {"sequence": "PYVVAELDYLVATRVG [mimetic peptide for VapC26 α3]", "values": [
      {"measurement": "inhibition of VapBC26 toxin-antitoxin complex formation (binding inhibitor, seen as increased ribonuclease activity)", "result": "acted as a VapBC26 binding inhibitor"}
    ]},
    {"sequence": "YLVATRVGVDAELAV", "values": [
      {"measurement": "inhibition of VapBC26 toxin-antitoxin complex formation (binding inhibitor, seen as increased ribonuclease activity)", "result": "acted as a VapBC26 binding inhibitor"}
    ]},
    {"sequence": "DAELAVLRELAG [mimetic peptide for VapC26 α4]", "values": [
      {"measurement": "concentration of VapBC26 from which the results of RFU were similar", "result": "≥ 10", "unit": "µM"},
      {"measurement": "inhibition of VapBC26 toxin-antitoxin complex formation (binding inhibitor, seen as increased ribonuclease activity)", "result": "acted as a VapBC26 binding inhibitor"},
      {"measurement": "ribonuclease activity of VapBC26 compared with addition of SEQ. ID. NO: 11 and SEQ. ID. NO: 13 peptides", "result": "more increased"}
    ]}
  ]
}
